The first assay has as its system NCIH82 cells. The assay can be described thus: Cell proliferation experiment, NCI-H82. It is filed as cell-based, human. The note with it: Homo sapiens, NCI-H82, 72 h, NCIH82 cells, 72 h; read-out: Inhibitory activity IC50 of tested compounds on NCIH82 cells. An outline of the steps: (§1)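 Alamar blue fluorescence after 72 h of compound exposure; IC50 from 4-parameter fit (Min, Max, Slope). Cells passaged ≥2 times, log-phase, 96-well, duplicate wells, 5-fold serial dilutions.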
Take `CC[C@@H]1C(=O)N(C)c2cnc(Nc3ccc(C(=O)NC4CCN(CCNCCCOCCC#Cc5cccc6c5CN(C5CCC(=O)NC5=O)C6=O)CC4)cc3OC)nc2N1C1CCCC1` (stereo partly shown) [Compound 903]: the IC50 (usually the concentration that gives 50% inhibition) is ≤ 1000 nM.

In the case of `CC[C@@H]1C(=O)N(C)c2cnc(Nc3ccc(C(=O)NC4CCN(CCCNCCCOCCC#Cc5cccc6c5CN(C5CCC(=O)NC5=O)C6=O)CC4)cc3OC)nc2N1C1CCCC1` (stereo partly shown) [Compound 904], the IC50 is > 1000 nM.

As for `CC[C@@H]1C(=O)N(C)c2cnc(Nc3ccc(C(=O)NC4CCN(CCCNCCOCCC#Cc5cccc6c5CN(C5CCC(=O)NC5=O)C6=O)CC4)cc3OC)nc2N1C1CCCC1` (stereo partly shown) [Compound 905], the IC50 was > 1000 nM.

For the compound `CC[C@@H]1C(=O)N(C)c2cnc(Nc3ccc(C(=O)NC4CCN(CCN(C)CCCOCCC#Cc5cccc6c5CN(C5CCC(=O)NC5=O)C6=O)CC4)cc3OC)nc2N1C1CCCC1` (stereo partly shown) [Compound 932], the half-maximal inhibitory concentration (IC50) was ≤ 1000 nM.

Turning to `CC[C@@H]1C(=O)N(C)c2cnc(Nc3ccc(C(=O)NC4CCC(N5CCN(CCCNCCC#Cc6cccc7c6CN(C6CCC(=O)NC6=O)C7=O)CC5)CC4)cc3OC)nc2N1C1CCCC1` (stereo partly shown) [Compound 933], the IC50 was ≤ 1000 nM.

A further assay concerns Daudi cells. The experiment in a line: Cell proliferation experiment, Daudi. The class given is cell-based, human. The note with it: Homo sapiens, Daudi, 72 h, Daudi cells, 72 h; read-out: Inhibitory activity IC50 of tested compounds on Daudi cells. Summed up: as §1
With `CC[C@@H]1C(=O)N(C)c2cnc(Nc3ccc(C(=O)NC4CCN(CCNCCCOCCC#Cc5cccc6c5CN(C5CCC(=O)NC5=O)C6=O)CC4)cc3OC)nc2N1C1CCCC1` (stereo partly shown) [Compound 903], the IC50 is ≤ 100 nM.

On to `CC[C@@H]1C(=O)N(C)c2cnc(Nc3ccc(C(=O)NC4CCN(CCN(C)CCCOCCC#Cc5cccc6c5CN(C5CCC(=O)NC5=O)C6=O)CC4)cc3OC)nc2N1C1CCCC1` (stereo partly shown) [Compound 932], for which the IC50 was ≤ 100 nM.

On to `CC[C@@H]1C(=O)N(C)c2cnc(Nc3ccc(C(=O)NC4CCC(N5CCN(CCCNCCC#Cc6cccc7c6CN(C6CCC(=O)NC6=O)C7=O)CC5)CC4)cc3OC)nc2N1C1CCCC1` (stereo partly shown) [Compound 933], for which the half-inhibitory concentration (IC50) fell in the range of 100 to 1000 nM.

Another assay relates to HT-29 cells. The assay can be described thus: Cell proliferation experiment, HT-29. It is filed as cell-based. The note with it: Homo sapiens; HT-29 cells, 72 h; read-out: Inhibitory activity IC50 of tested compounds on HT-29 cells. Summed up: as §1
Consider `CC[C@@H]1C(=O)N(C)c2cnc(Nc3ccc(C(=O)NC4CCN(CCNCCCOCCC#Cc5cccc6c5CN(C5CCC(=O)NC5=O)C6=O)CC4)cc3OC)nc2N1C1CCCC1` (stereo partly shown) [Compound 903], for which the IC50 lay within 300 to 1000 nM.

Regarding `CC[C@@H]1C(=O)N(C)c2cnc(Nc3ccc(C(=O)NC4CCN(CCCNCCCOCCC#Cc5cccc6c5CN(C5CCC(=O)NC5=O)C6=O)CC4)cc3OC)nc2N1C1CCCC1` (stereo partly shown) [Compound 904], the half-inhibitory concentration (IC50) is > 1000 nM.

In the case of `CC[C@@H]1C(=O)N(C)c2cnc(Nc3ccc(C(=O)NC4CCN(CCCNCCOCCC#Cc5cccc6c5CN(C5CCC(=O)NC5=O)C6=O)CC4)cc3OC)nc2N1C1CCCC1` (stereo partly shown) [Compound 905], the IC50 is > 1000 nM.

In the case of `CC[C@@H]1C(=O)N(C)c2cnc(Nc3ccc(C(=O)NC4CCN(CCN(C)CCCOCCC#Cc5cccc6c5CN(C5CCC(=O)NC5=O)C6=O)CC4)cc3OC)nc2N1C1CCCC1` (stereo partly shown) [Compound 932], the half-inhibitory concentration (IC50) is ≤ 300 nM.

In the case of `CC[C@@H]1C(=O)N(C)c2cnc(Nc3ccc(C(=O)NC4CCC(N5CCN(CCCNCCC#Cc6cccc7c6CN(C6CCC(=O)NC6=O)C7=O)CC5)CC4)cc3OC)nc2N1C1CCCC1` (stereo partly shown) [Compound 933], the IC50 was in the range of 300 to 1000 nM.

The test system of the next assay is U-87MG cells. The assay can be described thus: Cell proliferation experiment, U-87MG. The class given is cell-based. The following applies: Homo sapiens; U-87MG cells, 72 h; read-out: Inhibitory activity IC50 of tested compounds on U-87MG cells. An outline of the steps:
as §1
Regarding `CC[C@@H]1C(=O)N(C)c2cnc(Nc3ccc(C(=O)NC4CCN(CCNCCCOCCC#Cc5cccc6c5CN(C5CCC(=O)NC5=O)C6=O)CC4)cc3OC)nc2N1C1CCCC1` (stereo partly shown) [Compound 903], the 50% inhibitory concentration (IC50) was ≤ 100 nM.

`CC[C@@H]1C(=O)N(C)c2cnc(Nc3ccc(C(=O)NC4CCN(CCCNCCCOCCC#Cc5cccc6c5CN(C5CCC(=O)NC5=O)C6=O)CC4)cc3OC)nc2N1C1CCCC1` (stereo partly shown) [Compound 904]: the IC50 lay in the range of 500 to 1000 nM.

`CC[C@@H]1C(=O)N(C)c2cnc(Nc3ccc(C(=O)NC4CCN(CCCNCCOCCC#Cc5cccc6c5CN(C5CCC(=O)NC5=O)C6=O)CC4)cc3OC)nc2N1C1CCCC1` (stereo partly shown) [Compound 905]: the concentration for half-maximal inhibition (IC50) was 100 to 500 nM.

For `CC[C@@H]1C(=O)N(C)c2cnc(Nc3ccc(C(=O)NC4CCN(CCN(C)CCCOCCC#Cc5cccc6c5CN(C5CCC(=O)NC5=O)C6=O)CC4)cc3OC)nc2N1C1CCCC1` (stereo partly shown) [Compound 932], the IC50 was ≤ 100 nM.

On to `CC[C@@H]1C(=O)N(C)c2cnc(Nc3ccc(C(=O)NC4CCC(N5CCN(CCCNCCC#Cc6cccc7c6CN(C6CCC(=O)NC6=O)C7=O)CC5)CC4)cc3OC)nc2N1C1CCCC1` (stereo partly shown) [Compound 933], for which the IC50 lay in the range of 100 to 500 nM.

Another assay has as its system HUVEC cells. The experiment in a line: Cell proliferation experiment, HUVEC. It is filed as cell-based. The following applies: Homo sapiens, 72 h, read-out: Inhibitory activity IC50 of tested compounds on HUVEC cells. Here is the method: (§2) Reagents: RPMI-1640 medium, McCoy's 5A medium, IMDM medium, MEM medium, L-15 medium, fetal bovine serum. Penicillin-Streptomycin double antibody, trypsin, etc., 2-mercaptoethanol, NEAA, pyruvate, etc.
(§3) The cells were cultured in conventional ways, and the cells should be passed at least 2 generations before plating. Cells at the logarithmic growth phase were collected, prepared into single cell suspensions and counted. The concentration of cells was adjusted to the desired concentration, and cells were inoculated into a 96-well cell culture plate at 100 μl per well. 100 μL of complete medium of the test compound were added to each well, set up 2 duplicate wells for each concentration, and diluted with a 5-fold gradient, and continued to culture for 72 h. All cells were subjected to IC50 test for corresponding samples. The experimental results are shown in Test Example 4.
(§4) The fluorescence intensity of each well was detected using the Alarm blue method, and IC50 was calculated.
(§5) IC50 was calculated according to the following formula:
(§6) Y=Max+(Min−Max)/[1+(X/IC50)×Slope]
(§7) wherein Min, Max and Slope represent the minimum, maximum and slope respectively.
In the case of `CC[C@@H]1C(=O)N(C)c2cnc(Nc3ccc(C(=O)NC4CCN(CCN(C)CCCOCCC#Cc5cccc6c5CN(C5CCC(=O)NC5=O)C6=O)CC4)cc3OC)nc2N1C1CCCC1` (stereo partly shown) [Compound 932], the IC50 is ≤ 1000 nM.

As for `CC[C@@H]1C(=O)N(C)c2cnc(Nc3ccc(C(=O)NC4CCC(N5CCN(CCCNCCC#Cc6cccc7c6CN(C6CCC(=O)NC6=O)C7=O)CC5)CC4)cc3OC)nc2N1C1CCCC1` (stereo partly shown) [Compound 933], the IC50 was ≤ 1000 nM.

The subject of another assay is HL-60 cells. The experiment in a line: Cell proliferation experiment, HL-60. The class given is cell-based. The note with it: Homo sapiens, 72 h, read-out: Inhibitory activity IC50 of tested compounds on HL-60 cells. The procedure: as §2, §3, §4, §5, §6, §7
`CC[C@@H]1C(=O)N(C)c2cnc(Nc3ccc(C(=O)NC4CCN(CCNCCCOCCC#Cc5cccc6c5CN(C5CCC(=O)NC5=O)C6=O)CC4)cc3OC)nc2N1C1CCCC1` (stereo partly shown) [Compound 903]: the IC50 is ≤ 1000 nM.

Turning to `CC[C@@H]1C(=O)N(C)c2cnc(Nc3ccc(C(=O)NC4CCN(CCCNCCCOCCC#Cc5cccc6c5CN(C5CCC(=O)NC5=O)C6=O)CC4)cc3OC)nc2N1C1CCCC1` (stereo partly shown) [Compound 904], the 50% inhibitory concentration (IC50) was ≤ 1000 nM.

`CC[C@@H]1C(=O)N(C)c2cnc(Nc3ccc(C(=O)NC4CCN(CCCNCCOCCC#Cc5cccc6c5CN(C5CCC(=O)NC5=O)C6=O)CC4)cc3OC)nc2N1C1CCCC1` (stereo partly shown) [Compound 905]: the IC50 is ≤ 1000 nM.

In another assay the test system is MV4;11 cells. The experiment in a line: Cell proliferation experiment (Alamar blue, 72 h), MV4;11. It is filed as cell-based, human. The following applies: Homo sapiens, MV4-11, 72 h, MV4;11 cells, 72 h; read-out: Inhibitory activity IC50 of tested compounds on MV4;11 cells. Summed up:
as §1
For `CC[C@@H]1C(=O)N(C)c2cnc(Nc3ccc(C(=O)NC4CCN(CCNCCCOCCC#Cc5cccc6c5CN(C5CCC(=O)NC5=O)C6=O)CC4)cc3OC)nc2N1C1CCCC1` (stereo partly shown) [Compound 903], the IC50 was ≤ 100 nM.

On to `CC[C@@H]1C(=O)N(C)c2cnc(Nc3ccc(C(=O)NC4CCN(CCCNCCCOCCC#Cc5cccc6c5CN(C5CCC(=O)NC5=O)C6=O)CC4)cc3OC)nc2N1C1CCCC1` (stereo partly shown) [Compound 904], for which the half-maximal inhibitory concentration (IC50) is ≤ 100 nM.

As to `CC[C@@H]1C(=O)N(C)c2cnc(Nc3ccc(C(=O)NC4CCN(CCCNCCOCCC#Cc5cccc6c5CN(C5CCC(=O)NC5=O)C6=O)CC4)cc3OC)nc2N1C1CCCC1` (stereo partly shown) [Compound 905], the concentration for half-maximal inhibition (IC50) is ≤ 100 nM.

As for `CC[C@@H]1C(=O)N(C)c2cnc(Nc3ccc(C(=O)NC4CCN(CCN(C)CCCOCCC#Cc5cccc6c5CN(C5CCC(=O)NC5=O)C6=O)CC4)cc3OC)nc2N1C1CCCC1` (stereo partly shown) [Compound 932], the IC50 is ≤ 100 nM.

Consider `CC[C@@H]1C(=O)N(C)c2cnc(Nc3ccc(C(=O)NC4CCC(N5CCN(CCCNCCC#Cc6cccc7c6CN(C6CCC(=O)NC6=O)C7=O)CC5)CC4)cc3OC)nc2N1C1CCCC1` (stereo partly shown) [Compound 933], for which the IC50 was ≤ 100 nM.

These data come from US20230210999A1, “TARGETED PROTEASE DEGRADATION (TED) PLATFORM” (EUBULUS BIOTHERAPEUTICS INC., priority 2020, published 2023).
